Results published in paper PMC11768059, “Guanidines Conjugated with Cell-Penetrating Peptides: A New Approach for the Development of Antileishmanial Molecules” (Molecules, 2025).
Several values for one entry are separate records, joined by “and”; a condition that tells them apart may be missing. Equal values may be shown once. Residues, ends and D or L forms follow the SMILES beside them. *: point of attachment. X1 = O=C(/N=C(/NCc1ccc(C(=O)*)cc1)Nc1ccc(Br)cc1)c1ccccc1; code Z = not defined here

Tests used:
cathepsin B = biological target: cathepsin B; parameters: method as in PMID 12574338; conditions: cited from earlier work
[1] = biological target: T1, cysteine protease LmCPB2.8∆CTE (CPB) (Leishmania mexicana, UniProt P36400); conditions: irreversible inhibitor ref 13; cited from earlier work
T1 sequence (P36400 126-343): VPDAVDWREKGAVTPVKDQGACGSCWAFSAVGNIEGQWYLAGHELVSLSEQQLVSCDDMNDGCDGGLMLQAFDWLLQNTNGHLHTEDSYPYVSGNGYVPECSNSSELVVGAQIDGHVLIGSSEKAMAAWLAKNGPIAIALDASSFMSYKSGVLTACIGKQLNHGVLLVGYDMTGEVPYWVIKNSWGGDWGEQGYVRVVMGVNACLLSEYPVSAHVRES

[2] = system: L. amazonensis promastigotes; experiment: anti-promastigote assay (MTT) against L. amazonensis; type: cell-based, Leishmania amazonensis; conditions: 72 h
Protocol: (§1) L. amazonensis promastigotes (MPRO/BR/1972/M1841-LV-79) were grown in LIT culture medium, while L. infantum promastigotes (MNYC/BZ/62/M379) were cultivated in 199 culture medium (Sigma-Aldrich, St. Louis, MO, USA) supplemented with 10% heat-inactivated fetal bovine serum (FBS; Gibco/Invitrogen) and in 10% urine, at 28 °C, until reaching the mid-log phase of growth. Macrophages were sourced from the peritoneal cavity of Swiss mice, using the methodology outlined by de Almeida et al. 2017 [60]. For the anti-promastigote assays, L. infantum and L. amazonensis cultures in the exponential growth phase were transferred to 96-well plates at a final concentration of 1 × 10^7 promastigotes mL^−1. Subsequently, the tested compounds were added at concentrations ranging from 1.28 to 100 µmol L^−1 to assess their anti-promastigote activity. After 72 h, viable promastigotes were determined using the MTT method.
(§2) Anti-promastigote and anti-amastigote assays, the infection index (percentage of infected cells * number of intracellular parasites/numbers of infected cells), and their cytotoxic activity were conducted as previously described.

[3] = cytotoxic activity on peritoneal macrophages; type: cell-based, Swiss mice; conditions: Swiss, mouse
Protocol: For the anti-promastigote assays, L. infantum and L. amazonensis cultures in the exponential growth phase were transferred to 96-well plates at a final concentration of 1 × 10^7 promastigotes mL^−1. […] After 72 h, viable promastigotes were determined using the MTT method.
as §2

[4] = system: L. amazonensis intracellular amastigotes; type: cell-based, Leishmania amazonensis
Protocol: as §2

[5] = system: L. infantum promastigotes; experiment: anti-promastigote assay (MTT) against L. infantum; type: cell-based, Leishmania infantum; conditions: 72 h
Protocol: as §1, §2

[6] = system: L. infantum intracellular amastigotes; type: cell-based, Leishmania infantum
Protocol: as §2

[7] = system: L. amazonensis promastigotes; experiment: microbe, parasite or virus in culture; conditions: for IC50: read-out: Promastigote IC50 L. amazonensis in active serum
Source text: (§3) Several strategies were employed to increase the stability of peptides, including the incorporation of non-natural amino acids, modifications of the N- and/or C-terminal, cyclization, the use of non-peptide structures (peptidomimetics), and multimerization.

[8] = system: L. infantum promastigotes; experiment: microbe, parasite or virus in culture; conditions: for IC50: read-out: Promastigote IC50 L. infantum in active serum
Source text: as §3

[9] = biological target: T1, cysteine protease LmCPB2.8∆CTE (CPB); experiment: cysteine protease (CPB) enzyme inhibition assay; type: biochemical, Leishmania major; conditions: for inhibition at 20 µM: read-out: CPB Inhibitory Activity 20 μM, 20 μM
Protocol: CPB inhibition experiments were performed as described previously by Moreira et al. 2022 [13]. The results were expressed as mean ± standard deviation of two independent replicates.

[10] = eukaryotic membrane mimetic POPC/cholesterol, 50 μM
Protocol: As illustrated in Figure 5 and Figure 6, the analyte in question (peptide, bioconjugate, or guanidine) was added within 120 s, and after an interval of 360 s, the behavior of the membrane mimetic was reanalyzed. After this time, 10% triton was added so that the vesicles could completely release the carboxyfluorescein.
Large unilamellar vesicles (LUVs) composed of POPC (1-palmitoyl-2-oleoyl-sn-glycero-3-phosphatidylcholine) and cholesterol (Chol) (4:1) or POPC, POPS (1-palmitoyl-2-oleoyl-sn-glycero-3-serine), and ergosterol (Erg) (8:1:1) were prepared according to the methods described by Lorenzón et al. 2014 [62].

[11] = peritoneal macrophages, Table 1 (L. amazonensis series)
[12] = peritoneal macrophages, Table 2 (L. infantum series)
[13] = culture medium with active fetal bovine serum

Compound: Z-Arg-Leu-Val-Gly-Ile-Val-Ome ({code Z}-RLVGIV-OMe; reading uncertain; also: printed as Z-Arg-Leu-Val-Gly-Ile-Val-Ome)
- Ki (cathepsin B): 0.088 nM

Compound: CC(C)C[C@H](NC(=O)[C@H]1O[C@@H]1C(=O)O)C(=O)NCCCCN=C(N)N (relative stereo) [Compound E64, L-trans-epoxysuccinyl-leucylamido-(4-guanidino)butane]
- inhibition of Leishmania CPB (potency range) [1]: nanomolar range

Compound: N=C(N)NCCC[C@H](NC(=O)[C@H](CCCNC(=N)N)NC(=O)[C@H](CCC(N)=O)NC(=O)[C@H](CCCNC(=N)N)NC(=O)[C@H](CCCNC(=N)N)NC(=O)[C@H](CCCCN)NC(=O)[C@H](CCCCN)NC(=O)[C@H](CCCNC(=N)N)NC(=O)CNC(=O)[C@@H](N)Cc1ccc(O)cc1)C(=O)O [TAT, reference compound] (H-YGRKKRRQRR-OH; N-terminus assumed)
- Promastigote IC50 [2]: no activity
- CC50 [3, 11]: > 1000 µM
- CC50 [3, 12]: > 2000 µM
- Amastigote IC50 [4]: no activity
- Promastigote IC50 [5]: no leishmanicidal activity
- Amastigote IC50 [6]: no leishmanicidal activity
- Promastigote IC50 L. amazonensis in active serum [7, 13]: did not display anti-promastigote activity
- Promastigote IC50 L. infantum in active serum [8, 13]: did not display anti-promastigote activity
- inhibition at 20 µM [9]: 9.42 ± 0.01%

Compound: N=C(N)NCCC[C@H](NC(=O)[C@H](CCCNC(=N)N)NC(=O)[C@H](CCC(N)=O)NC(=O)[C@H](CCCNC(=N)N)NC(=O)[C@H](CCCNC(=N)N)NC(=O)[C@H](CCCCN)NC(=O)[C@H](CCCCN)NC(=O)[C@H](CCCNC(=N)N)NC(=O)CNC(=O)[C@H](Cc1ccc(O)cc1)NC(=O)c1ccc(CN/C(=N/C(=O)c2ccccc2)Nc2ccc(Br)cc2)cc1)C(=O)O [GVL1-TAT] (X1-YGRKKRRQRR-OH)
- IC50 [2]: 5.3 µM and 5.32 µM
- CC50 [3, 11]: > 1000 µM
- CC50 [3, 12]: > 2000 µM
- IC50 ([4]; read-out: Amastigote IC50): 0.8 ± 0.06 µM
- IC50 [5]: 1.2 ± 0.3 µM
- IC50 ([6]; read-out: Amastigote IC50): 3.8 ± 0.3 µM
- IC50 [7, 13]: 2.6 ± 0.8 µM
- IC50 [8, 13]: 1.2 ± 0.3 µM
- IC50 [9]: 3.78 ± 0.1 µM
- inhibition at 20 µM [9]: ~92%
- permeabilization of vesicles (carboxyfluorescein release) [10]: no damage was observed in the vesicles

Compound: C[C@@H]1[C@H](O)[C@@H](C)/C=C/C=C/C=C/C=C/C=C/C=C/C=C/[C@H](O[C@@H]2O[C@H](C)[C@@H](O)[C@H](N)[C@@H]2O)C[C@@H]2O[C@](O)(C[C@@H](O)C[C@@H](O)[C@H](O)CC[C@@H](O)C[C@@H](O)CC(=O)O[C@H]1C)C[C@H](O)[C@H]2C(=O)O [Amp B, Amphotericin B, reference compound]
- CC50 [3, 11]: 99.8 ± 3.7 µM
- IC50 ([7]; Leishmania amazonensis): 0.5 ± 0.1 µM
- IC50 ([8]; Leishmania infantum): 0.3 ± 0.1 µM

Compound: O=C(O)c1ccc(CN/C(=N/C(=O)c2ccccc2)Nc2ccc(Br)cc2)cc1 [GVL1, (Z)-4-((2-benzoyl-3-(4-bromophenyl)guanidino)methyl) benzoic acid]
- CC50 ([3]; Table 1 (L. amazonensis series)): > 1000 µM
- CC50 [3, 12]: > 2000 µM
- IC50 ([5]; Leishmania infantum): 50.8 ± 2.2 µM
- IC50 ([7]; Leishmania amazonensis): 65 ± 2.4 µM
- IC50 ([8]; Leishmania infantum): 50 ± 1.2 µM
